Our source for the IC50 values is publication PMC6037852, “Design of Diarylheptanoid Derivatives as Dual Inhibitors Against Class IIa Histone Deacetylase and β-amyloid Aggregation” (Frontiers in Pharmacology, 2018).

One experiment has as its target HDAC9 (Homo sapiens, UniProt Q9UKV0). The experiment is described as follows: HDAC fluorometric activity assay, HDAC9.
The target in a further experiment is T1, HDAC4 (Homo sapiens, UniProt P56524).
T1 construct: Genes encoding HDAC4 (residues 648–1057) flanked with NdeI and EcoRI sites; made in house; host or cells: E. coli BL21(DE3)
The experiment is described as follows: HDAC fluorometric activity assay, HDAC4. The conditions noted are these: Boc-Lys(TFA)-AMC 10 μM; read-out: IC50 Class IIa HDAC4. Format: biochemical. The procedure: Proteins were expressed in BL21(DE3) cells by overnight induction with IPTG (1 mM) at 20–25°C and purified from cleared cell lysates by sequential chromatography on Ni-Sepharose 6 fast flow, Mono Q 5/50 GL, and Superdex 75 10/300 GL columns (GE Healthcare). Protein concentrations were quantified with Bradford Reagent (Bio-Rad).
Enzyme, inhibitors and substrate were diluted with HDAC buffer (15 mM Tris-HCl pH 8.1, 0.25 mM EDTA, 250 mM NaCl, 10% v:v glycerol). Briefly, 10 μL diluted HDAC, i.e., HeLa nuclear extract (Enzo), HDAC6 (BPS), HDAC4, HDAC5 (BPS), HDAC7 (BPS) and HDAC9 (BPS), as well as 50 μL of testing compounds at different concentrations were added to each well of a 96-well microtiter plate and pre-incubated at 30°C for 5 min. […] The fluorescence in wells without test compounds (0.1% DMSO, negative control) was set as 100% enzymatic activity and the fluorescence in wells with enzyme eliminated was set as 0% enzymatic activity. The fluorescence ratio of test compounds to negative control was defined as percentage of remaining enzyme activity. The IC50 values were calculated by linear regression of the data. All experiments were performed in triplicate.

Another experiment concerns the target HDAC5 (Homo sapiens, UniProt Q9UQL6). The experiment is described as follows: HDAC fluorometric activity assay, HDAC5. To be noted: IC50 Class IIa HDAC5, fluorogenic HDAC class IIa substrate 10 μM.
A further experiment has as its target T2, HDAC7 (Homo sapiens, UniProt Q8WUI4).
T2 sequence (Q8WUI4 1-952): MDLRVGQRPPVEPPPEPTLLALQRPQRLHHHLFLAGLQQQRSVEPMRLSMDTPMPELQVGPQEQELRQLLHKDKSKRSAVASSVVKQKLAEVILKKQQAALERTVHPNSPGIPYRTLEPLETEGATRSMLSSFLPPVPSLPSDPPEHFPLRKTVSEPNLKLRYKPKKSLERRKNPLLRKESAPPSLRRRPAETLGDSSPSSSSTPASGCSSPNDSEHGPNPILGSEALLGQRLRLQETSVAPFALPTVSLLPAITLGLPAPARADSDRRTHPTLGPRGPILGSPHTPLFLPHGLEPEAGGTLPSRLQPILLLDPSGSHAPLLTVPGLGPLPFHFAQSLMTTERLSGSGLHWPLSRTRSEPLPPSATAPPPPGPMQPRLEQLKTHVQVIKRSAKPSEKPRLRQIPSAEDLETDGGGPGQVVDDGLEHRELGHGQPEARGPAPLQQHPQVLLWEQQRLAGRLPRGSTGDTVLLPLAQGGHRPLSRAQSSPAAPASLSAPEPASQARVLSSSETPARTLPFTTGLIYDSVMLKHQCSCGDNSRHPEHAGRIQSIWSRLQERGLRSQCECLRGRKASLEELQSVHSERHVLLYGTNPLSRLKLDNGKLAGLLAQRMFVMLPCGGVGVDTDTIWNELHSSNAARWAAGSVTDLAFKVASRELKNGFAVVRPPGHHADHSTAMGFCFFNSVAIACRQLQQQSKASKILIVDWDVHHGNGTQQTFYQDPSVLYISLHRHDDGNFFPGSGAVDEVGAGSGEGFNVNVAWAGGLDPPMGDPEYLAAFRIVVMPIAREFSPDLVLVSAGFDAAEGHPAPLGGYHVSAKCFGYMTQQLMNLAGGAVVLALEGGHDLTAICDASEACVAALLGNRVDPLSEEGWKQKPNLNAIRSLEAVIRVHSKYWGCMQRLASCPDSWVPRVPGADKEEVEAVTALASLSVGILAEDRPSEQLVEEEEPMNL
Briefly: HDAC fluorometric activity assay, HDAC7. The conditions noted are these: IC50 Class IIa HDAC7, fluorogenic HDAC class IIa substrate 10 μM.

A further experiment has as its target T3, HDAC6 (Homo sapiens, UniProt Q9UBN7).
T3 sequence (Q9UBN7 1-1215): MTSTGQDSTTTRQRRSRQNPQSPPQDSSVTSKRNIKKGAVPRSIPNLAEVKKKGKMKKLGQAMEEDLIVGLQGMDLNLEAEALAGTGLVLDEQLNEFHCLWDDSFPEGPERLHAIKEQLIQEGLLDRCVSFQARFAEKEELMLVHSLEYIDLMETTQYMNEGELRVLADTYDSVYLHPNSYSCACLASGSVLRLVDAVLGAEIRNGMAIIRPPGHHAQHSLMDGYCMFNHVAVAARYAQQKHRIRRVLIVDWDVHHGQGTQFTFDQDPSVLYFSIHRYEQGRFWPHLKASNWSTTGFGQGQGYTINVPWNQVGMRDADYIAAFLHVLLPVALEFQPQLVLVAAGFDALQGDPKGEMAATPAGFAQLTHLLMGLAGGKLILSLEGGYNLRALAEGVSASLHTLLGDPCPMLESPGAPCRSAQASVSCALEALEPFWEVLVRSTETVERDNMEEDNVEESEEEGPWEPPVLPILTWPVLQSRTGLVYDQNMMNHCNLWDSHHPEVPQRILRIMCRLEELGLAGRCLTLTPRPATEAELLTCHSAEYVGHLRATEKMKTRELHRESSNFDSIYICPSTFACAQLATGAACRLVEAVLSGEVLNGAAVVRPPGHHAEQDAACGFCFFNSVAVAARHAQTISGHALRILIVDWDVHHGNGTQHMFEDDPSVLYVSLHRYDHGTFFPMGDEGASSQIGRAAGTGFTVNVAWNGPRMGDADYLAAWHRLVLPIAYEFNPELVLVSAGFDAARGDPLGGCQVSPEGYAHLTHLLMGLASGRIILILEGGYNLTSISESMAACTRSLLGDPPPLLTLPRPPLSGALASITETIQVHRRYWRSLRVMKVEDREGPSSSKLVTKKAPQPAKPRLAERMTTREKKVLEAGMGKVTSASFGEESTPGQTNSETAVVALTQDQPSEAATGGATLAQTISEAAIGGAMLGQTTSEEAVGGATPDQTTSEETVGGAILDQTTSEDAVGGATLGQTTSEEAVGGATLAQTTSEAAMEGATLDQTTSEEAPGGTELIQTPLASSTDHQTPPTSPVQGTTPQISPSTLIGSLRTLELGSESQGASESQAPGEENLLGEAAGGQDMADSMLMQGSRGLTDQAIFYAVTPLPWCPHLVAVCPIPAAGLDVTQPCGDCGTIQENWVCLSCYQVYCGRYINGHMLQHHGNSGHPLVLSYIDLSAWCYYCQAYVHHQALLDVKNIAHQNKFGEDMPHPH
Briefly: HDAC fluorometric activity assay, HDAC6.

As a reminder, the IC50 is the concentration that gives 50% inhibition.

Sequence of HDAC5 (Q9UQL6 whole entry): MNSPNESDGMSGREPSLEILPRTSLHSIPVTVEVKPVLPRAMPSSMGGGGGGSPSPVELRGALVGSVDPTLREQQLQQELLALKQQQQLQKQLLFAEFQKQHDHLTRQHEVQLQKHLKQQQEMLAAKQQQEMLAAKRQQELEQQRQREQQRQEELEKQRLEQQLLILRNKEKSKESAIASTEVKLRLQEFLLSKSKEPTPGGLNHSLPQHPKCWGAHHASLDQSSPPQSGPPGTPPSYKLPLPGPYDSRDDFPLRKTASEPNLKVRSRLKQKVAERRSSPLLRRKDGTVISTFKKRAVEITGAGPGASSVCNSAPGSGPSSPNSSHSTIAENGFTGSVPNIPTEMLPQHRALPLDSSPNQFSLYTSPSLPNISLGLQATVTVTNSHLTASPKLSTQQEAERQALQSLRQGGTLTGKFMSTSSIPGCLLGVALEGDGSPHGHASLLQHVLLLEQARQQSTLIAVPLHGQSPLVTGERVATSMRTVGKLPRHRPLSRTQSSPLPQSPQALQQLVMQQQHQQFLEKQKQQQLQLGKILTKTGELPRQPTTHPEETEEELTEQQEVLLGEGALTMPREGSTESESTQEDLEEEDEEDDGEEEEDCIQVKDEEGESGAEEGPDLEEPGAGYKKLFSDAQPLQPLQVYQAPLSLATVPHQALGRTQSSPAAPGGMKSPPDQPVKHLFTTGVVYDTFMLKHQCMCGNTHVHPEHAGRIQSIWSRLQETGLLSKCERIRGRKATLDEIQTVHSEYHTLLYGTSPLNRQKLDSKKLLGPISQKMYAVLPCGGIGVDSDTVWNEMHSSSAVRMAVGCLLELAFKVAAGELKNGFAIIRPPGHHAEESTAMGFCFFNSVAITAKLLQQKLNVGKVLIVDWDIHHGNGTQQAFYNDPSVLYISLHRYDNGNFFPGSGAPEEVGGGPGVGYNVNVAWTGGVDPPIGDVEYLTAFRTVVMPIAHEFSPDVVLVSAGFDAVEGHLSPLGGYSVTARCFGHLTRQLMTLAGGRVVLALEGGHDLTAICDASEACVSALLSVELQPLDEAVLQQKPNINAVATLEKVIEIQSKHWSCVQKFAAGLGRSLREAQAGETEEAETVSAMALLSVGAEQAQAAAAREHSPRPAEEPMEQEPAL
T1 sequence (P56524 648-1057): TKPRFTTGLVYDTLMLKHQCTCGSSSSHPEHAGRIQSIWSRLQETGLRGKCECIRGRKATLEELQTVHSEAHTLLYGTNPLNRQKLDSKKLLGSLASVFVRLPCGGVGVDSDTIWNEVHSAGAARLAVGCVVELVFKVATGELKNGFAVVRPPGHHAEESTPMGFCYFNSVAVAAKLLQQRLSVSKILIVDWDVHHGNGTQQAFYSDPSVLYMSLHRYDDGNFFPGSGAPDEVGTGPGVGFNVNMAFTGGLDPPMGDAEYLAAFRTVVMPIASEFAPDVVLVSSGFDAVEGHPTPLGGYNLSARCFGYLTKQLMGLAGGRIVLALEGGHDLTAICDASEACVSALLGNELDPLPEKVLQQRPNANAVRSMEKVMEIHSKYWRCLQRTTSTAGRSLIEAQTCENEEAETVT
Sequence of HDAC9 (Q9UKV0 whole entry): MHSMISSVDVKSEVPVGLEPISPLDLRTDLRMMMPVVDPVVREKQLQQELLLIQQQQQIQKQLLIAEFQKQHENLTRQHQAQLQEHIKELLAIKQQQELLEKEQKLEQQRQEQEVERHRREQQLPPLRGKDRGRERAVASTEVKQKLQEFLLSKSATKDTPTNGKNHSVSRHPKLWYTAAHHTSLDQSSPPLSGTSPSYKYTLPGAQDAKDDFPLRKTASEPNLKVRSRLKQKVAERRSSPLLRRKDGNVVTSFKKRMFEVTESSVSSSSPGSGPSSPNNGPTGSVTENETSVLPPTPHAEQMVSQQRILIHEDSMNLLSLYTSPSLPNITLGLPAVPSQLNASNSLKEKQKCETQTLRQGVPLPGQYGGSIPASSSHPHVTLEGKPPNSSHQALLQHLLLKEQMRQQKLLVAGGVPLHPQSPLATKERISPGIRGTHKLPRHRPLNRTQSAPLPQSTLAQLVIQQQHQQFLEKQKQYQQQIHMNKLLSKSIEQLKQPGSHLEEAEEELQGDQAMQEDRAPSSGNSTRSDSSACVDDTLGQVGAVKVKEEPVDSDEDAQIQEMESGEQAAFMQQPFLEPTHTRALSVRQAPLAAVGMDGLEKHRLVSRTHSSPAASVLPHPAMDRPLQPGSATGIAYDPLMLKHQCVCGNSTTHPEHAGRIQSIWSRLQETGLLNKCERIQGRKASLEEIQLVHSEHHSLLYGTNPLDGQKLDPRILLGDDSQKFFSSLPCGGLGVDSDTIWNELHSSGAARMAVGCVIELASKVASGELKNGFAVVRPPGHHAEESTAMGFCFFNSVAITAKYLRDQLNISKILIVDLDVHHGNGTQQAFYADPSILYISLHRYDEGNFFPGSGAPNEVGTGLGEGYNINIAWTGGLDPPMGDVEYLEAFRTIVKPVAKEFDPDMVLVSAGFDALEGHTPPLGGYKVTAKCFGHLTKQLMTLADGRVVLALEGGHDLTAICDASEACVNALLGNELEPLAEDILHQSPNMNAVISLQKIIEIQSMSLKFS

Regarding `O=C(CCCCc1ccccc1)CCc1ccc(O)c(Cl)c1` [Compound 5g], the half-maximal inhibitory concentration (IC50) on HDAC9 was over 40 µM; on HDAC4, 29.9 ± 2.3 µM; at HDAC5 it was over 40 µM; at HDAC7, 30.7 ± 0.7 µM; on HDAC6, over 40 µM.

On to `O=C(/C=C/c1ccc(O)c(O)c1)CCCCc1ccccc1` [Compound 4c], for which the IC50 came out at 17.6 ± 0.3 µM on HDAC9; 30.5 ± 0.7 µM at HDAC4; 15.9 ± 1.5 µM at HDAC5; 8.4 ± 0.3 µM on HDAC7; 18.3 ± 0.9 µM against HDAC6.

On to `O=C(/C=C/c1ccc(O)c(Cl)c1)CCCCc1ccccc1` [Compound 4g], for which the IC50 on HDAC9, at HDAC4, on HDAC5, against HDAC7 and on HDAC6 was over 40 µM throughout.

With `O=C(/C=C/c1ccc(O)c(O)c1)Cc1ccccc1` [Compound 7b], the IC50 on HDAC9 was 29.2 ± 1.7 µM; on HDAC4, 39.8 ± 0.2 µM; at HDAC5, 13.7 ± 0.8 µM; against HDAC7 it was 15.4 ± 3 µM; against HDAC6, 37.2 ± 1.2 µM.

`O=C(CCCCc1ccccc1)CCc1ccc(O)c(O)c1` [Compound 5c]: the 50% inhibitory concentration (IC50) is 5.3 ± 0.3 µM on HDAC9; 18.1 ± 0.8 µM on HDAC4; 3.8 ± 0.1 µM on HDAC5; 4.3 ± 0.5 µM on HDAC7; over 40 µM against HDAC6.

With `O=C(/C=C/c1ccc(O)c(O)c1)c1ccccc1` [Compound 7a], the IC50 against HDAC9 is 18.4 ± 0.6 µM; at HDAC4, 31.1 ± 0.8 µM; on HDAC5 it was 13.1 ± 4.4 µM; against HDAC7 it was 9.6 ± 0.2 µM; against HDAC6, 26.2 ± 4.3 µM.

`O=C(CCCCc1ccccc1)CCc1ccc(O)c(F)c1` [Compound 5f]: the half-maximal inhibitory concentration (IC50) on HDAC9, at HDAC4, on HDAC5, on HDAC7 and at HDAC6 was over 40 µM each time.

For the compound `O=C(/C=C/c1ccc(O)c([N+](=O)[O-])c1)CCCCc1ccccc1` [Compound 4i], the IC50 is over 40 µM against HDAC9; over 40 µM at HDAC4; 36.1 ± 3.7 µM at HDAC5; 32.7 ± 2.1 µM against HDAC7; over 40 µM against HDAC6.

In the case of `O=C(CCc1ccc(O)c(O)c1)c1ccccc1` [Compound 8a], the IC50 against HDAC9 was 14.2 ± 1.6 µM; on HDAC4 it was over 40 µM; at HDAC5, 6.2 ± 0.4 µM; at HDAC7, 12 ± 1 µM; on HDAC6, over 40 µM.

Regarding `O=C(CCCCc1ccccc1)CCc1ccc(O)c(Br)c1` [Compound 5h], the IC50 against HDAC9, on HDAC4, at HDAC5, against HDAC7 and against HDAC6 was over 40 µM each time.

Turning to `O=C(/C=C/c1cc(O)c(O)c(O)c1)CCCCc1ccccc1` [Compound 4j], the concentration for half-maximal inhibition (IC50) against HDAC9 was 15.4 ± 1.8 µM; on HDAC4, over 40 µM; on HDAC5, 7.1 ± 0.2 µM; against HDAC7 it was 3.8 ± 0.4 µM; against HDAC6, 11.9 ± 0.2 µM.

Take `O=C(CCCc1ccccc1)CCc1ccc(O)c(O)c1` [Compound 8d]: the half-maximal inhibitory concentration (IC50) was 17.3 ± 3.2 µM against HDAC9; over 40 µM at HDAC4; 7.5 ± 0.3 µM against HDAC5; 7.4 ± 1.6 µM on HDAC7; over 40 µM on HDAC6.

Regarding `O=C(/C=C/c1ccc(O)c(Br)c1)CCCCc1ccccc1` [Compound 4h], the concentration for half-maximal inhibition (IC50) against HDAC9, at HDAC4, against HDAC5, against HDAC7 and at HDAC6 was over 40 µM each time.
